As usually defined, the IC50 is the point on the concentration scale where inhibition reaches its midpoint. Read a low IC50 as greater potency. The EC50 is the midpoint of the concentration-response curve. A low value points to higher potency in that assay.

Where two headings read alike, the source gives them in different places.

Assay [1] concerns the target T1, ALDH1A2 (Homo sapiens, UniProt O94788).
T1 sequence (O94788 1-518): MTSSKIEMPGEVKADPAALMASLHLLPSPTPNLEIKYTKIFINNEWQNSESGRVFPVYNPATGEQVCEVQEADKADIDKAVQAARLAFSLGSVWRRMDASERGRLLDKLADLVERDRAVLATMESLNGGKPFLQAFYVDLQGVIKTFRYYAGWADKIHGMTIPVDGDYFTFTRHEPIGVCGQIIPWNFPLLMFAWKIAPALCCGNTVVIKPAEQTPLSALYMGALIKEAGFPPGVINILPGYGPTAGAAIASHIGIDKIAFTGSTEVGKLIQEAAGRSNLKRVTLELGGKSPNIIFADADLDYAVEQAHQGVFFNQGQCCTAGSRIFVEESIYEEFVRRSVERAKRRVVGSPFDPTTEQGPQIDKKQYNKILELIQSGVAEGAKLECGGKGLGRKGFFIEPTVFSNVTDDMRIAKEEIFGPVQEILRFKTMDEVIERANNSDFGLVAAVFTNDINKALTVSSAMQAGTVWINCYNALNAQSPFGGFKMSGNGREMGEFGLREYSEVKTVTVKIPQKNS
The assay is described as follows: Inhibitor screening using purified enzymes: ALDH1A2 activity, retinoic acid production by HPLC (5 uM initial screen, then IC50). Details: histidine-tag (C); made in house; host or cells: bacterial expression (pET28 vector, IPTG induction). The note with it: purified enzyme. The format is biochemical. From the text: ALDHs were cloned into bacterial expression vector for in vitro enzyme assays and into mammalian expression vectors for cell-based enzyme assays. Human ALDH1A1 cDNA and human ALDH2 cDNA were purchased from OriGene (SC321535) and Open Biosystems (MHS4771-99611182), respectively. and human ALDH1A2 cDNA was cloned from human testis RNA using RT-PCR (Population Division of the Department of Economic and Social Affairs of the United Nations Secretariat. World Population prospects: the 2008 revision. Available at http://www.un.org/esa/population/ (Retrieved Sep. 30, 2011)). For bacterial expression, an open reading frame of ALDH1A1 and ALDH2 were subcloned into the pETite vector (Lucigen) with a 5′ histidine-tag and that of ALDH1A2 into a pET28 vector (Novagen) with a 3′ histidine-tag. Correct frame and sequences were verified through DNA sequencing (UW DNA sequencing facility). ALDHs were induced with 1 mM IPTG and purified using His.Bind resin (Novagen, San Diego, Calif.) and stored in a buffer containing 20 mM Hepes (pH 8), 150 mM KCl and 1 mM EDTA as previously described (Fierce, Y., de Morais Vieira, M., Piantedosi, R., Wyss, A., Blaner, W. S., and Paik, J. (2008) In vitro and in vivo characterization of retinoid synthesis from beta-carotene. Archives of biochemistry and biophysics 472, 126-138).
ALDH1A1 and ALDH1A2 activity was determined as previously reported (Beedle M T, Stevison F, Zhong G, Topping T, Hogarth C, Isoherranen N, Griswold M D. Sources of All-Trans Retinal Oxidation Independent of the Aldehyde Dehydrogenase 1A Isozymes Exist in the Postnatal Testis. Biol Reprod. 2018 Sep. 21. doi: 10.1093/biolre/ioy200). Briefly, purified enzymes were incubated in a buffer containing 10 mM HEPES buffer (pH 8.0), 150 mM potassium chloride and 2 mM EDTA with 2 mM NAD. Retinoic acid production was determined using HPLC as previously reported (Amory J K, Muller C H, Shimshoni A J, Isoherranen N, Paik J, Moreb J S, Amory D W, Evanoff R, Goldstein A S, Griswold M D. Suppression of spermatogenesis by bisdichloroacetyldiamines is mediated by inhibition of testicular retinoic acid biosynthesis. Journal of Andrology 2011; 32(1):111-119). Inhibitors were diluted in DMSO and added to the reactions. […] For initial screening of inhibitors for ALDH1A2, 1 μg ALDH1A2, 5 μM all-trans-retinal and 5 μM inhibitors were incubated for 15 min at 37° C. […] For this purpose, 0.5 μg ALDH1A2 and […] were incubated for 5 minutes at 37° C. with varying concentrations of inhibitors. To determine specificity toward ALDH1A2, the IC50 for […]

Assay [2] concerns the target T1, ALDH1A2. The assay is described as follows: Cell-based enzyme assay, retinoic acid production in ALDH1A2/H1299 cells. The procedure:
(§1) ALDH1A1 cDNA clone was purchased transfection-ready, and ALDH1A2 full-length cDNA was subcloned into pcDNA3, a mammalian expression vector. ALDH1A1 and ALDH1A2 were transfected into H1299 cells (CRL5803, ATCC) using Lipofectamine 3000 (Invitrogen) following the manufacturer's instructions. Stably transfected cells were selected with G418 (1.2 mg/ml) and referred to as ALDH1A1/H1299 and ALDH1A2/H1299. For the cell-based enzyme assays,
(§2) H1299 cells were routinely grown in RPMI-1640 (ATCC) supplemented with 10% fetal bovine serum (Atlanta Biologicals) in a 37 C, 5% CO2, moisture-saturated atmosphere. H1299, ALDH1A1/H1299 and ALDH1A2/H1299 cells were seeded into 12-well plates (1×10^5 cells/well) and grown for 2 days to confluence. Confluent cells were treated for 20 hours in the above media excluding serum with 2 μM all-trans-retinal, and varying concentrations of inhibitors. Serum-free media was used for the treatment period to avoid retinoic acid in serum. Retinoic acid concentrations were determined from cells and media, and specificity of inhibitors was determined by comparing retinoic acid levels in the presence and absence of the inhibitors in ALDH1A1- vs. ALDH1A2-expressing cells.

Assay [3] deals with T2, ALDH1A1 (Homo sapiens, UniProt P00352).
T2 sequence (P00352 1-501): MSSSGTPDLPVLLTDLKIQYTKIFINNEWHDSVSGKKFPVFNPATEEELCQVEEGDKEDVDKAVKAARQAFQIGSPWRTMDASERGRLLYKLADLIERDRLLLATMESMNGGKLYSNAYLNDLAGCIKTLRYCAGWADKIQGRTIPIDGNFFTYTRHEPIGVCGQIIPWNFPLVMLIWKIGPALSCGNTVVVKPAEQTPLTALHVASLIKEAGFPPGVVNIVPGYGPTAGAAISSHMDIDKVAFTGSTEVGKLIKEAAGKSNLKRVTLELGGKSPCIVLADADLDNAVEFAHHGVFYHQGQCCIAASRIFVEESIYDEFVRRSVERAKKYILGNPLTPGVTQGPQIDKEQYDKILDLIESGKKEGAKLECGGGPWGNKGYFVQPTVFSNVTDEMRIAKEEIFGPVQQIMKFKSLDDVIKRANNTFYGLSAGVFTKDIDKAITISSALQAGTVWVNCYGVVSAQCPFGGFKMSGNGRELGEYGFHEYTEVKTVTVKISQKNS
The assay can be described thus: Cell-based enzyme assay, retinoic acid production in ALDH1A1/H1299 cells. The procedure:
as §1, §2

In the case of `CS(=O)(=O)c1ccc(-c2nn(-c3ccc(F)cc3)cc2C(=O)Nc2cccc(C(F)(F)F)c2)cc1` [Compound 256, N-(3-Trifluoromethylphenyl)-1-(4-fluorophenyl)-3-[4-(methylsulfonyl)phenyl]-1H-pyrazole-4-carboxamide], the midpoint of inhibition in assay [1], the IC50, lay at 0.112 µM. Besides, the EC50 in assay [2] (cell-based) is 0.011 µM; in assay [3] (cell-based) it was 46 µM.

As to `COC(=O)c1ccc(-n2cc(C(=O)Nc3cccc(F)c3)c(-c3ccc(S(C)(=O)=O)cc3)n2)cc1` [Compound 273, Methyl 4-{4-[(3-fluorophenyl)carbamoyl]-3-[4-(methylsulfonyl)phenyl]-1H-pyrazol-1-yl} benzoate], the IC50 in assay [1] came to 0.179 µM. The EC50 in assay [2] (cell-based) turned out to be 0.045 µM; in assay [3] (cell-based), 5.63 µM.

`CS(=O)(=O)c1ccc(-c2nn(-c3ccc(C=O)cc3)cc2C(=O)Nc2cccc(F)c2)cc1` [Compound 280, 1-(4-Formylphenyl)-3-[4-(methylsulfonyl)phenyl]-N-(3-fluorophenyl)-1H-pyrazole-4-carboxamide] returned an IC50 in assay [1] above 5 µM. Further, the EC50 was 0.3 µM in assay [2] (cell-based) and above 20 µM in assay [3] (cell-based).

Regarding `CNC(=O)c1ccc(-n2cc(C(=O)Nc3cccc(F)c3)c(-c3ccc(S(C)(=O)=O)cc3)n2)cc1` [Compound 285, 1-(4-Methylcarbomylphenyl)-3-[4-(methylsulfonyl)phenyl]-N-(3-fluorophenyl)-1H-pyrazole-4-carboxamide], the results for the 50% effective concentration (EC50) in assay [2] (cell-based) and in assay [3] (cell-based) were 0.25 µM and 0.81 µM, respectively.

On to `CN(C)C(=O)c1ccc(-n2cc(C(=O)Nc3cccc(F)c3)c(-c3ccc(S(C)(=O)=O)cc3)n2)cc1` [Compound 286, 1-(4-Dimethylcarbomylphenyl)-3-[4-(methylsulfonyl)phenyl]-N-(3-fluorophenyl)-1H-pyrazole-4-carboxamide], for which the EC50 in assay [2] (cell-based) is 0.11 µM; in assay [3] (cell-based), above 20 µM.

`CC(=O)Oc1ccccc1OC(=O)c1cn(-c2cccc(Cl)c2)nc1-c1ccc(S(C)(=O)=O)cc1` [Compound 291, 2-(Acetyloxy)phenyl 1-(3-chlorophenyl)-3-[4-(methylsulfonyl)phenyl]-1H-pyrazole-4-carboxylate]: the EC50 was 0.042 µM in assay [2] (cell-based) and above 20 µM in assay [3] (cell-based).

On to `O=C(O)c1ccc(-n2cc(C(=O)Nc3cccc(F)c3)c(-c3ccc(O)cc3)n2)cc1` [Compound 306, 4-{4-[(3-Fluorophenyl)carbamoyl]-3-(4-hydroxyphenyl)-1H-pyrazol-1-yl}benzoic acid], for which the EC50 in assay [2] (cell-based) came to 0.15 µM; in assay [3] (cell-based), 9.62 µM.

`O=C(O)c1ccc(-n2cc(C(=O)Nc3ccccc3O)c(-c3ccc(O)cc3)n2)cc1` [Compound 307, 4-{3-(4-Hydroxyphenyl)-4-[(2-hydroxyphenyl)carbamoyl]-1H-pyrazol-1-yl}benzoic acid]: the 50% effective concentration (EC50) in assay [2] (cell-based) is 0.25 µM; in assay [3] (cell-based), above 20 µM.

As to `Cn1cccc1C(=O)N1CCN(c2ccc(NC(=O)C(Cl)Cl)c(N3CCCCCC3)c2)CC1` [Compound 381, {4-[4-Dichloroacetamido-3-(azepan-1-yl)phenyl]piperazin-1-yl}(1-methyl-1H-pyrrol-2-yl)methanone], the half-maximal inhibitory concentration (IC50) in assay [1] came to 18.5 µM. In addition, the EC50 in assay [2] was above 5 µM; in assay [3], 0.059 µM.

“Methyl 4-{4-[(2-hydroxyphenyl)carbamoyl]-[4-(methylsulfonyl)phenyl]-1H-pyrazol-1-yl} benzoate [Compound 274]”: 0.131 µM corresponded to half-maximal inhibition in assay [1] (IC50). Further, the EC50 came out at 0.008 µM in assay [2] (cell-based) and 2.23 µM in assay [3] (cell-based).

The values are drawn from patent US11548875B2, “Inhibitor compounds for male contraception” (University of Washington, priority 2018, dated 2023).
